Source: patent publication US12116388B2, “Amylin receptor agonists” (Novo Nordisk A/S, priority 2022, dated 2024)
Starred links: 1 amine or outer side, 2 acyl side, 3 side chain; linkers in the order of their positions; H or OH if unused. Residues, ends and D or L forms follow the SMILES beside them. Groups on a side chain read outwards from the residue. *: point of attachment. C18 diacid = O=C(O)CCCCCCCCCCCCCCCCC(=O)*; C16 diacid = O=C(O)CCCCCCCCCCCCCCC(=O)*; γGlu = O=C(O)[C@H](CCC(=O)[*:2])N[*:1]

Columns and labels:
[1] = molecular target: T1, human calcitonin receptor (hCTR) (Homo sapiens, UniProt P30988); test: Human calcitonin receptor (hCTR) in vitro potency assay, CRE-luciferase reporter in BHK cells; type: cell-based; settings: BHK hCTR/CRE-Luc cells, 3 hours incubation, assay buffer with 1% ovalbumin; read-out: hCalcR potency, EC50
T1 construct: host or cells: BHK (Baby Hamster Kidney), Hollex-1 cell line
T1 sequence (P30988 25-474): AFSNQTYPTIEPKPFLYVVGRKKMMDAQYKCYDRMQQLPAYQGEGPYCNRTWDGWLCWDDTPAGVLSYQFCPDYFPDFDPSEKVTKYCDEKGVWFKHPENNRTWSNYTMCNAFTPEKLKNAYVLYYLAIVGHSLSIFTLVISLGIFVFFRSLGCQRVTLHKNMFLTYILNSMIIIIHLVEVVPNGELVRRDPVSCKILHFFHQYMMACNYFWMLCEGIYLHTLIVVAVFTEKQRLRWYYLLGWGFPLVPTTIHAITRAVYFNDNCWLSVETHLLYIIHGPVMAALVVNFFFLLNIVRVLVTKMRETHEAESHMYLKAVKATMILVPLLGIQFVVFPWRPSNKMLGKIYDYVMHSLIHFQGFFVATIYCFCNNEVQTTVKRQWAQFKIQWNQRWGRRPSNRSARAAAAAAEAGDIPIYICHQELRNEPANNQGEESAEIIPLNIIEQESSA
Method in brief: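 BHK cells stably co-expressing human calcitonin receptor and a CRE-luciferase reporter, seeded the day before, were exposed to 7-fold serial dilutions (7 concentrations, often starting near 10 nM) in DMEM/HEPES/1% ovalbumin buffer for 3 h at 37 °C. Luminescence was then read after SteadyLite Plus addition.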

[2] = molecular target: T2, human amylin receptor (hAMYR3) (Homo sapiens, UniProt O60896+P30988); test: Human amylin receptor (hAMYR3) in vitro potency assay, CRE-luciferase reporter in BHK cells; type: cell-based; settings: BHK hAMYR3/CRE-Luc cells, 3 hours incubation, assay buffer with 1% ovalbumin
T2 construct: host or cells: BHK (Baby Hamster Kidney), Hollex-1 cell line further transfected with RAMP3
Method in brief: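 BHK cells stably expressing human calcitonin receptor (a) plus RAMP3 and a CRE-luciferase reporter, seeded overnight, then exposed to 7-point 7-fold dilutions (often from ~10 nM) in DMEM/HEPES buffer with 1% ovalbumin for 3 h at 37 °C. Luciferase luminescence read after SteadyLite Plus addition.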

T2 sequence (O60896 24-148, one chain of several): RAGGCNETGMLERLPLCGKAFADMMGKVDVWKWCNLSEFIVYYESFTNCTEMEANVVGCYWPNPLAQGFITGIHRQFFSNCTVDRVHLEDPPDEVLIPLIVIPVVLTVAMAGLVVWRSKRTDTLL

Row | EC50 [1] [pM] | EC50 [2] [pM] | SMILES
1 | 1.19 | 1.38 | CC[C@H](C)[C@H](NC(=O)[C@H](CCCCNC(=O)CC[C@H](NC(=O)CCCCCCCCCCCCCCCCC(=O)O)C(=O)O)NC(=O)CNC(=O)[C@H](Cc1ccccc1)NC(=O)[C@H](CC(N)=O)NC(=O)[C@H](CC(=O)O)NC(=O)[C@H](CO)NC(=O)[C@H](CO)NC(=O)[C@H](Cc1c[nH]cn1)NC(=O)[C@H](Cc1c[nH]cn1)NC(=O)[C@H](CC(C)C)NC(=O)[C@H](Cc1ccccc1)NC(=O)[C@H](CCC(=O)O)NC(=O)[C@H](C)NC(=O)[C@H](CC(C)C)NC(=O)[C@H](CCCNC(=N)N)NC(=O)[C@H](CCC(N)=O)NC(=O)[C@@H](NC(=O)[C@H](CCC(N)=O)NC(=O)[C@H](C)NC(=O)[C@@H](NC(=O)[C@H](CO)NC(=O)[C@H](CC(C)C)NC(=O)[C@H](CCC(N)=O)NC(=O)[C@H](CO)NC(=O)[C@H](C)NC(C)=O)[C@@H](C)O)[C@@H](C)O)C(=O)N[C@@H](CC(C)C)C(=O)N1CCC[C@H]1C(=O)N1CCC[C@H]1C(=O)N[C@H](C(=O)N[C@@H](CC(=O)O)C(=O)N[C@H](C(=O)NCC(=O)N[C@@H](CO)C(=O)N[C@@H](CC(N)=O)C(=O)N[C@H](C(=O)N1CCC[C@H]1C(N)=O)[C@@H](C)O)C(C)C)[C@@H](C)O [Compound 18, N^1-acetyl,N{Epsilon-25}-[(4S)-4-carboxy-4-(17-carboxyheptadecanoylamino)butanoyl]-[Ala1,Ser2,Gln3,Leu4,Ser5,Ala7,Gln8,Glu14,His17,Asp21,Lys25,Pro28,Pro29,Asp31,Pro37]-human amylin] (Ac-ASQLSTAQTQRLAEFLHHSSDNFGK([γGlu-C18 diacid])ILPPTDVGSNTP-NH2)
2 | 1 | 1.5 | CC[C@H](C)[C@H](NC(=O)[C@H](CCCCNC(=O)CC[C@H](NC(=O)CCCCCCCCCCCCCCCCC(=O)O)C(=O)O)NC(=O)CNC(=O)[C@H](Cc1ccccc1)NC(=O)[C@@H]1CCCN1C(=O)[C@H](CC(=O)O)NC(=O)[C@H](CO)NC(=O)[C@H](CO)NC(=O)[C@H](Cc1c[nH]cn1)NC(=O)[C@H](Cc1c[nH]cn1)NC(=O)[C@H](CC(C)C)NC(=O)[C@H](Cc1ccccc1)NC(=O)[C@H](CCC(=O)O)NC(=O)[C@H](C)NC(=O)[C@H](CC(C)C)NC(=O)[C@H](CCCNC(=N)N)NC(=O)[C@H](CCC(N)=O)NC(=O)[C@@H](NC(=O)[C@H](CCC(N)=O)NC(=O)[C@H](C)NC(=O)[C@@H](NC(=O)[C@H](CO)NC(=O)[C@H](CC(C)C)NC(=O)[C@H](CCC(N)=O)NC(=O)[C@H](CO)NC(=O)[C@H](C)NC(C)=O)[C@@H](C)O)[C@@H](C)O)C(=O)N1CCC[C@H]1C(=O)N[C@@H](CO)C(=O)N[C@@H](CO)C(=O)N[C@H](C(=O)N[C@@H](CC(=O)O)C(=O)N[C@H](C(=O)NCC(=O)N1CCC[C@H]1C(=O)N[C@@H](CC(=O)O)C(=O)N[C@H](C(=O)N1CCC[C@H]1C(N)=O)[C@@H](C)O)C(C)C)[C@@H](C)O [Compound 19, N^1-acetyl,N{Epsilon-25}-[(4S)-4-carboxy-4-(17-carboxyheptadecanoylamino)butanoyl]-[Ala1,Ser2,Gln3,Leu4,Ser5,Ala7,Gln8,Glu14,His17,Asp21,Pro22,Lys25,Pro27,Asp31,Pro34,Asp35,Pro37]-human amylin] (Ac-ASQLSTAQTQRLAEFLHHSSDPFGK([γGlu-C18 diacid])IPSSTDVGPDTP-NH2)
3 | 1.5 | 1.62 | CC[C@H](C)[C@H](NC(=O)[C@@H]1CCCN1C(=O)CNC(=O)[C@H](Cc1ccccc1)NC(=O)[C@H](CC(N)=O)NC(=O)[C@H](CC(=O)O)NC(=O)[C@H](CO)NC(=O)[C@H](CO)NC(=O)[C@H](Cc1c[nH]cn1)NC(=O)[C@H](Cc1c[nH]cn1)NC(=O)[C@H](CC(C)C)NC(=O)[C@H](Cc1ccccc1)NC(=O)[C@H](CCC(=O)O)NC(=O)[C@H](C)NC(=O)[C@H](CC(C)C)NC(=O)[C@H](CCCNC(=N)N)NC(=O)[C@H](C)NC(=O)[C@@H](NC(=O)[C@H](CCC(N)=O)NC(=O)[C@H](C)NC(=O)[C@@H](NC(=O)[C@H](CO)NC(=O)[C@H](CC(C)C)NC(=O)[C@H](Cc1c[nH]cn1)NC(=O)[C@H](CO)NC(=O)[C@H](C)NC(=O)CC[C@H](NC(=O)CCCCCCCCCCCCCCC(=O)O)C(=O)O)[C@@H](C)O)[C@@H](C)O)C(=O)N[C@@H](CC(C)C)C(=O)N1CCC[C@H]1C(=O)N1CCC[C@H]1C(=O)N[C@H](C(=O)N[C@@H](CC(=O)O)C(=O)N[C@H](C(=O)NCC(=O)N[C@@H](CO)C(=O)N[C@@H](CC(N)=O)C(=O)N[C@H](C(=O)N1CCC[C@H]1C(N)=O)[C@@H](C)O)C(C)C)[C@@H](C)O [Compound 20, N^1-[(4S)-4-carboxy-4-(15-carboxypentadecanoylamino)butanoyl]-[Ala1,Ser2,His3,Leu4,Ser5,Ala7,Gln8,Ala10,Glu14,His17,Asp21,Pro25,Pro28,Pro29,Asp31,Pro37]-human amylin] ({C16 diacid-γGlu}-ASHLSTAQTARLAEFLHHSSDNFGPILPPTDVGSNTP-NH2)
4 | 1.89 | 1.64 | CC[C@H](C)[C@H](NC(=O)[C@@H]1CCCN1C(=O)CNC(=O)[C@H](Cc1ccccc1)NC(=O)[C@H](CC(N)=O)NC(=O)[C@H](CC(=O)O)NC(=O)[C@H](CO)NC(=O)[C@H](CO)NC(=O)[C@H](Cc1c[nH]cn1)NC(=O)[C@H](Cc1c[nH]cn1)NC(=O)[C@H](CC(C)C)NC(=O)[C@H](Cc1ccccc1)NC(=O)[C@H](CCC(=O)O)NC(=O)[C@H](C)NC(=O)[C@H](CC(C)C)NC(=O)[C@H](CCCNC(=N)N)NC(=O)[C@H](CCC(N)=O)NC(=O)[C@@H](NC(=O)[C@H](CCC(N)=O)NC(=O)[C@H](C)NC(=O)[C@@H](NC(=O)[C@H](CO)NC(=O)[C@H](CC(C)C)NC(=O)[C@H](Cc1c[nH]cn1)NC(=O)[C@H](CO)NC(=O)[C@H](C)NC(=O)CC[C@H](NC(=O)CCCCCCCCCCCCCCCCC(=O)O)C(=O)O)[C@@H](C)O)[C@@H](C)O)C(=O)N[C@@H](CC(C)C)C(=O)N1CCC[C@H]1C(=O)N1CCC[C@H]1C(=O)N[C@H](C(=O)N[C@@H](CC(=O)O)C(=O)N[C@H](C(=O)NCC(=O)N[C@@H](CO)C(=O)N[C@@H](CC(N)=O)C(=O)N[C@H](C(=O)N1CCC[C@H]1C(N)=O)[C@@H](C)O)C(C)C)[C@@H](C)O [Compound 21, N^1-[(4S)-4-carboxy-4-(17-carboxyheptadecanoylamino)butanoyl]-[Ala1,Ser2,His3,Leu4,Ser5,Ala7,Gln8,Glu14,His17,Asp21,Pro25,Pro28,Pro29,Asp31,Pro37]-human amylin] ({C18 diacid-γGlu}-ASHLSTAQTQRLAEFLHHSSDNFGPILPPTDVGSNTP-NH2)
5 | 1.58 | 1.62 | CC[C@H](C)[C@H](NC(=O)[C@@H]1CCCN1C(=O)CNC(=O)[C@H](Cc1ccccc1)NC(=O)[C@H](CC(N)=O)NC(=O)[C@H](CC(=O)O)NC(=O)[C@H](CO)NC(=O)[C@H](CO)NC(=O)[C@H](Cc1c[nH]cn1)NC(=O)[C@H](Cc1c[nH]cn1)NC(=O)[C@H](CC(C)C)NC(=O)[C@H](Cc1ccccc1)NC(=O)[C@H](CCC(=O)O)NC(=O)[C@H](C)NC(=O)[C@H](CC(C)C)NC(=O)[C@H](CCCNC(=N)N)NC(=O)[C@H](C)NC(=O)[C@@H](NC(=O)[C@H](CCC(N)=O)NC(=O)[C@H](C)NC(=O)[C@@H](NC(=O)[C@H](CO)NC(=O)[C@H](CC(C)C)NC(=O)[C@H](C)NC(=O)[C@H](CO)NC(=O)[C@H](C)NC(=O)CC[C@H](NC(=O)CCCCCCCCCCCCCCCCC(=O)O)C(=O)O)[C@@H](C)O)[C@@H](C)O)C(=O)N[C@@H](CC(C)C)C(=O)N1CCC[C@H]1C(=O)N1CCC[C@H]1C(=O)N[C@H](C(=O)N[C@@H](CC(=O)O)C(=O)N[C@H](C(=O)NCC(=O)N[C@@H](CO)C(=O)N[C@@H](CC(N)=O)C(=O)N[C@H](C(=O)N1CCC[C@H]1C(N)=O)[C@@H](C)O)C(C)C)[C@@H](C)O [Compound 23, N^1-[(4S)-4-carboxy-4-(17-carboxyheptadecanoylamino)butanoyl]-[Ala1,Ser2,Ala3,Leu4,Ser5,Ala7,Gln8,Ala10,Glu14,His17,Asp21,Pro25,Pro28,Pro29,Asp31,Pro37]-human amylin] ({C18 diacid-γGlu}-ASALSTAQTARLAEFLHHSSDNFGPILPPTDVGSNTP-NH2)
